Source: paper PMC11502347 (Frontiers in Microbiology, 2024)
In brackets after ≈: the same amount, converted by molar mass.

Tests used:
M. smegmatis = type: cell-based, Mycobacterium smegmatis; conditions: Sensitive; REMA, 2 days
M. bovis = type: cell-based, Mycobacterium bovis; conditions: Sensitive; REMA, 7 days
Mtb CF 165 (MDR) = type: cell-based, Mycobacterium tuberculosis; conditions: MDR clinical isolate; REMA, 7 days
Mtb CF 48 (MDR) = type: cell-based, Mycobacterium tuberculosis; conditions: MDR clinical isolate; REMA, 7 days
Mtb CF 105 (MDR) = type: cell-based, Mycobacterium tuberculosis; conditions: MDR clinical isolate; REMA, 7 days
Mtb CF 169 (Pre-XDR) = type: cell-based, Mycobacterium tuberculosis; conditions: Pre-XDR clinical isolate; REMA, 7 days
Mtb H37Rv [1] = assay: microbe, parasite or virus in culture; type: cell-based, Mycobacterium tuberculosis; conditions: for CIM90 Mtb H37Rv: Sensitive strain, REMA, 7 days; for MIC90: Mycobacterium tuberculosis, H37RV, Table 3
Mtb CF 162 (MDR) = type: cell-based, Mycobacterium tuberculosis; conditions: MDR clinical isolate; REMA, 7 days
Mtb CF 171 (MDR) = type: cell-based, Mycobacterium tuberculosis; conditions: MDR clinical isolate; REMA, 7 days
Mtb CF 81 (Pre-XDR) = type: cell-based, Mycobacterium tuberculosis; conditions: Pre-XDR clinical isolate; REMA, 7 days
intramacrophagic Mtb = test system: intramacrophagic Mtb; set-up: method as in Matsumoto et al. (2006); conditions: at a concentration of 1 μg/mL; experimental conditions not identical; ref Matsumoto et al. (2006); cited from earlier work
[2] = test system: intracellular Mtb H37Rv in J774.A1 macrophages; assay: Intracellular antimycobacterial activity in infected macrophages; type: cell-based, Mycobacterium tuberculosis; conditions: 10x MIC, 72 h, CFU count
Protocol: Murine macrophage J774.A1 cells (1 × 10^6 cells/mL) were seeded in 24-well plates and incubated as previously described. After 24 h, the supernatant was discarded, and 1 mL of Mtb inoculum (2 × 10^6 CFU/mL) was added to the wells. The plate was incubated for 2 h to facilitate infection. Subsequently, the supernatant was removed, and the cells were washed with PBS. An amikacin solution (200 μg/mL) was added to ensure the sterility of the extracellular environment. After 2 h, the wells were washed, and treatments were applied (1x, 5x, and 10x MIC90 of Bfx or RFP). The cultures were then incubated for 72 h. After incubation, the cells were lysed using a Triton solution, and the supernatant was collected, serially diluted, and plated on Middlebrook 7H11 medium supplemented with 10% OADC. These plates were incubated for 20–30 days until colony-forming units (CFU) were counted ([Solcia et al., 2021]).

Mtb CF 61 (MDR) = type: cell-based, Mycobacterium tuberculosis; conditions: MDR clinical isolate; REMA, 7 days
[3] = test system: Murine macrophage J774.A1; assay: cells; type: cell-based; conditions: Mus musculus, cytotoxicity, resazurin, exposure 24 and 72 h, which one not given
[4] = test system: Staphylococcus epidermidis ATCC 14990 T; assay: microbe, parasite or virus in culture; type: cell-based; conditions: ATCC14990
[5] = test system: Enterobacter aerogenes ATCC 13048 T; assay: microbe, parasite or virus in culture; type: cell-based; conditions: Klebsiella aerogenes, ATCC13048
[6] = test system: Klebsiella pneumoniae subsp. pneumoniae ATCC 13883 T; assay: microbe, parasite or virus in culture; type: cell-based; conditions: ATCC13883
[7] = test system: Enterococcus faecium NCTC 7171 T; assay: microbe, parasite or virus in culture; type: cell-based; conditions: NCTC7171
Mtb H37Rv [8] = assay: Checkerboard assay of Bfx with RFP; type: cell-based, Mycobacterium tuberculosis; conditions: for MIC90: Mycobacterium tuberculosis, H37RV, compound alone, Table S1
Protocol: To evaluate the interaction between Bfx and RFP, a checkerboard assay was conducted following the methodology proposed by Berenbaum ([Berenbaum, 1978]).Test compounds were serially diluted in Middlebrook 7H9 broth and arranged in a 96-well plate, starting with 2x MIC for each compound. RFP was also diluted horizontally based on its MIC90. The combinations of different concentrations of Bfx and RFP were incubated with Mtb (5 × 10⁵ CFU/mL) at 37°C and 5% CO₂ for 7 days. Post-incubation, 0.01% resazurin was added, and fluorescence readings were taken after 24 h to determine the Fractional Inhibitory Concentration Index (FICI). The combined effects of the compound combinations were classified according to the Fractional Inhibitory Concentration Index (FICI):
FICI=MICofdrug1incombination/MICofdrug1+MICofdrug2incombination/MICofdrug1

[9] = test system: Staphylococcus saprophyticus subsp. saprophyticus ATCC 15305; assay: microbe, parasite or virus in culture; type: cell-based; conditions: ATCC15305
[10] = test system: Proteus mirabilis ATCC 29906 T; assay: microbe, parasite or virus in culture; type: cell-based; conditions: ATCC29906
[11] = test system: Citrobacter freundii ATCC 8030 T; assay: microbe, parasite or virus in culture; type: cell-based; conditions: ATCC8030
[12] = test system: Klebsiella oxytoca CCT 0182; assay: microbe, parasite or virus in culture; type: cell-based; conditions: CCT0182
MRC-5 fibroblasts = assay: cells; type: cell-based; conditions: Homo sapiens, MRC5; cytotoxicity, resazurin; exposure 24 and 72 h, which one not given
[13] = test system: Enterobacter cloacae subsp. cloacae ATCC 13883 T; assay: microbe, parasite or virus in culture; type: cell-based; conditions: ATCC13883
Mtb H37Rv [14] = assay: In vivo infection and treatment, BALB/c mice; conditions: daily oral 4 weeks, 5n 200 mg/kg, RFP 15 mg/kg; for reduction of the pulmonary load: abstract; for reduction of bacterial load in the lungs: intranasal infection, 5b
[15] = test system: Enterococcus faecalis ATCC 29212; assay: microbe, parasite or virus in culture; type: cell-based; conditions: ATCC29212
[16] = test system: Candida albicans ATCC 90028; assay: microbe, parasite or virus in culture; type: cell-based; conditions: ATCC90028, Sabouraud broth, 48 h
[17] = test system: Gram-negative, Gram-positive bacteria, and fungi, including Candida albicans; assay: microbe, parasite or virus in culture; type: cell-based; conditions: all the bacterial and fungal strains tested (Table 2), read-out: MIC90 for all species analyzed

SMILES | CIM90 M. smegmatis (M. smegmatis) | CIM90 M. bovis (M. bovis) | CIM90 CF 165 (Mtb CF 165 (MDR)) | CIM90 CF 48 (Mtb CF 48 (MDR)) | CIM90 CF 105 (Mtb CF 105 (MDR)) | CIM90 CF 169 (Mtb CF 169 (Pre-XDR)) | CIM90 Mtb H37Rv (Mtb H37Rv [1]) | CIM90 CF 162 (Mtb CF 162 (MDR)) | CIM90 CF 171 (Mtb CF 171 (MDR)) | CIM90 CF 81 (Mtb CF 81 (Pre-XDR)) | CIM90 CF 61 (Mtb CF 61 (MDR)) | IC50 [3] | MIC90 [4] | MIC90 [5] | MIC90 [6] | MIC90 [7] | MIC90 [9] | MIC90 [10] | MIC90 (Mtb H37Rv [1]) | MIC90 [11] | also measured
CC(=O)NC[C@H]1CN(c2ccc(N3CCOCC3)c(F)c2)C(=O)O1 [LNZ, linezolid] | 1,0 ± 0,20 μM | 0,25 ± 0,1 μM | 0,95 ± 0,01 μM | 33,88 ± 1,27 μM | 4,15 ± 0,52 μM | 0,95 ± 0,59 μM | 0,5 ± 0,20 μM | 0,41 ± 0,03 μM | 0,58 ± 0,02 μM | 0,47 ± 0,32 μM |  |  |  |  |  |  |  |  |  |  | 
C[C@]1(COc2ccc(N3CCC(Oc4ccc(OC(F)(F)F)cc4)CC3)cc2)Cn2cc([N+](=O)[O-])nc2O1 [delamanid] |  |  |  |  |  |  |  |  |  |  |  |  |  |  |  |  |  |  |  |  | intramacrophagic inhibition (intramacrophagic Mtb): 0.7 log₁₀ CFU/mL
CO[C@H]1/C=C/O[C@@]2(C)Oc3c(C)c(O)c4c(O)c(c(/C=N/N5CCN(C)CC5)c(O)c4c3C2=O)NC(=O)/C(C)=C\C=C\[C@H](C)[C@H](O)[C@@H](C)[C@@H](O)[C@@H](C)[C@H](OC(C)=O)[C@@H]1C [RFP, rifampicin] | 1,21 ± 0,00 μM | 0,10 ± 0,01 μM | > 30,38 μM | > 30,38 μM | > 30,38 μM | 6,95 ± 0,19 μM | 0,05 ± 0,01 μM | > 30,38 μM | > 30,38 μM | > 30,38 μM | > 30,38 μM | > 122 µM | 0.001 µM (≈ 0.000823 µg/mL) | > 100 µM | 5.1 µM (≈ 4.2 µg/mL) | > 100 µM | 0.009 µM (≈ 0.00741 µg/mL) | 19.4 µM (≈ 16 µg/mL) | 0.05 µM (≈ 0.0411 µg/mL) | 38.9 µM (≈ 32 µg/mL) | inhibition of bacterial load within macrophages [2]: 0.7 log10; MIC90 (Mtb H37Rv [8]): 0.05 µM; MIC90 combined (Mtb H37Rv [8]; in the combination 5b + RFP): 0,00098 µM; MIC90 combined (Mtb H37Rv [8]; in the combination 5n + RFP): 0,00098 µM; MIC90 [12]: 7.5 µM (≈ 6.17 µg/mL); IC50 (MRC-5 fibroblasts): > 122 µM; MIC90 [13]: > 100 µM; reduction of the pulmonary load (Mtb H37Rv [14]): 1.23 log10 CFU/mL; reduction of bacterial load in the lungs (Mtb H37Rv [14]): 1.23 log10; MIC90 [15]: 0.004 µM (≈ 0.00329 µg/mL)
NCC[C@H](O)C(=O)N[C@@H]1C[C@H](N)[C@@H](O[C@H]2O[C@H](CN)[C@@H](O)[C@H](O)[C@H]2O)[C@H](O)[C@H]1O[C@H]1O[C@H](CO)[C@@H](O)[C@H](N)[C@H]1O [AMK, amikacin] | 6,0 ± 2,00 μM | 1,5 ± 0,50 μM | 5,33 ± 0,95 μM | 12,27 ± 6,77 μM | 7,54 ± 11,48 μM | 0,36 ± 0,11 μM | 3,0 ± 1,00 μM | > 42,69 μM | 0,24 ± 0,10 μM | 19,52 ± 12,55 μM | > 42,69 μM |  |  |  |  |  |  |  |  |  | 
O=C(Nc1ccc(N2CCN(c3ccccn3)CC2)c(F)c1)c1ccc2no[n+]([O-])c2c1 [Compound 5n] | 41,07 ± 10,05 μM | 27,03 ± 10,43 μM | 1,84 ± 1,73 μM | 22.38 ± 9.37 µM | > 57,26 μM |  |  | 2,24 ± 1,47 μM | 0,26 ± 0,05 μM | 1,68 ± 1,32 μM | 0,56 ± 0,47 μM | > 230 µM | > 200 µM | > 200 µM | > 200 µM | > 200 µM | > 200 µM | > 200 µM | 0.09 µM (≈ 0.0391 µg/mL) | > 200 µM | inhibition of bacterial load within macrophages [2]: 0.9 log10; MIC90 [16]: > 200 µM; Results (interaction with RFP) (Mtb H37Rv [8]; Bfx combined with RFP): Synergistic (FICI values less than 0.5 indicate synergy); MIC90 (Mtb H37Rv [8]): 0.09 µM; MIC90 combined (Mtb H37Rv [8]; in the combination 5n + RFP): 0,00578 µM; MIC90 [17]: > 200 µM; MIC90 [12]: > 200 µM; IC50 (MRC-5 fibroblasts): > 222 µM; MIC90 [13]: > 200 µM; reduction of the pulmonary load (Mtb H37Rv [14]): 3.0 log10 CFU/mL; reduction of bacterial load in the lungs (Mtb H37Rv [14]): 3.0 log10; MIC90 [15]: > 200 µM
O=[N+]([O-])c1cn2c(n1)OC[C@@H](OCc1ccc(OC(F)(F)F)cc1)C2 [pretomanid] |  |  |  |  |  |  |  |  |  |  |  |  |  |  |  |  |  |  |  |  | intramacrophagic inhibition (intramacrophagic Mtb): 0.2 log₁₀ CFU/mL
NNC(=O)c1ccncc1 [INH, isoniazid] | 2,0 ± 0,50 μM |  | 71,56 ± 24,71 μM | > 182,30 μM | > 182,30 μM | > 182,30 μM | 0,95 ± 0,43 μM | > 182,30 μM | > 182,30 μM | > 182,30 μM | > 182,30 μM | > 729 µM | > 500 µM | > 500 µM | > 500 µM | > 500 µM | > 500 µM | > 500 µM | 0.95 µM (≈ 0.13 µg/mL) | > 500 µM | MIC90 [12]: > 500 µM; IC50 (MRC-5 fibroblasts): > 729 µM; MIC90 [13]: > 500 µM; MIC90 [15]: > 500 µM
O=C(Nc1ccc(N2CCSCC2)c(F)c1)c1ccc2no[n+]([O-])c2c1 [Compound 5b] | 24,17 ± 13,00 μM |  |  | 22,76 ± 13,20 μM | > 66,78 μM | 0,40 ± 0,03 μM |  |  |  | 0,27 ± 0,00 μM | 0,28 ± 0,02 μM | 40.8 µM | > 200 µM | > 200 µM | > 200 µM | > 200 µM | > 200 µM | > 200 µM | 0.7 µM (≈ 0.262 µg/mL) | > 200 µM | inhibition of bacterial load within macrophages [2]: 2.3 log10; MIC90 [16]: > 200 µM; FICI (Mtb H37Rv [8]; Bfx combined with RFP): 0.11; Results (interaction with RFP) (Mtb H37Rv [8]; Bfx combined with RFP): Synergistic (FICI values less than 0.5 indicate synergy); MIC90 (Mtb H37Rv [8]): 0.7 µM; MIC90 combined (Mtb H37Rv [8]; in the combination 5b + RFP): 0,0625 µM; MIC90 [17]: > 200 µM; MIC90 [12]: > 200 µM; IC50 (MRC-5 fibroblasts): 57.1 µM; MIC90 [13]: > 200 µM; reduction of bacterial load in the lungs (Mtb H37Rv [14]): 1.45 log10; MIC90 [15]: > 200 µM
